Source: PubChem BioAssay (NCI)
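Cultured in 96-well plates, cells were exposed to test compound for 48 hours across five concentrations. TGI: concentration producing complete growth inhibition.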

How the values were obtained:
Experiment in all cases: inhibition of tumour cell growth, NCI panel, 48 h
M19-MEL melanoma = system: M19-MEL melanoma
KM20L2 colon = system: KM20L2 colon
SNB-78 CNS = system: SNB-78 CNS
DLD-1 colon = system: DLD-1 colon
HOP-18 NSCLC = system: HOP-18 NSCLC
DMS 273 small cell lung = system: DMS 273 small cell lung
LXFL 529 NSCLC = system: LXFL 529 NSCLC
DMS 114 small cell lung = system: DMS 114 small cell lung
RXF-631 renal = system: RXF-631 renal

Row | SMILES | TGI (M19-MEL melanoma) [µM] | TGI (KM20L2 colon) [µM] | TGI (SNB-78 CNS) [µM] | TGI (DLD-1 colon) [µM] | TGI (HOP-18 NSCLC) [µM] | TGI (DMS 273 small cell lung) [µM] | TGI (LXFL 529 NSCLC) [µM] | TGI (DMS 114 small cell lung) [µM] | TGI (RXF-631 renal) [µM]
1 | CCC(=O)N/N=C(\C=C\c1cccc(O)c1)c1sc(Nc2ccc(C)cc2[N+](=O)[O-])nc1C | > 100 | > 100 | > 100 | > 100 | > 100 | > 100 | > 100 | > 100 | –
2 | Cc1cc(Cl)ccc1C1OC(=O)c2c1ccc1ccccc21 (centres undefined) | > 100 | > 100 | – | > 100 | – | > 100 | > 100 | – | –
3 | CC(C)(C)S(=O)OC12CC3CC(CC(C3)C1)C2 (centres undefined) | > 100 | > 100 | > 100 | – | – | > 100 | > 100 | > 100 | –
4 | Cc1ccc(NC(=O)C(=O)Cc2cc[n+]([O-])cc2)cc1 | > 100 | > 100 | > 100 | > 100 | > 100 | > 100 | > 100 | > 100 | –
5 | O=C(CC1C(=O)c2ccccc2C1=C1C(=O)c2ccccc2C1=O)c1ccccc1 (centres undefined) | > 100 | > 100 | > 100 | > 100 | > 100 | > 100 | > 100 | > 100 | –
6 | CCOC(OC1=C(C#N)CCCC1)C(C)[Se]c1ccccc1 (centres undefined) | 96.5 | > 100 | > 100 | > 100 | > 100 | 33.7 | > 100 | 15.4 | –
7 | NCc1cc(O)c(O)c(O)c1 | > 100 | > 100 | > 100 | > 100 | > 100 | > 100 | > 100 | > 100 | > 100
8 | COC(=O)c1ccc(NCc2cc(O)ccc2O)cc1 | 33.7 | > 72.7 | 52.1 | 40.8 | 27.4 | > 54.8 | 17.9 | 8.04 | –
9 | CCC1CN2CCC3(c4ccccc4)CC(C(=O)OC)=CC1C23 (centres undefined) | 31.1 | 30.3 | 44 | 39 | 35.1 | – | 28.7 | – | 28.5
10 | Cc1ccccc1N=NC(C(=O)c1ccccc1)C(=O)c1ccccc1 | 42.5 | 70.7 | – | > 100 | – | 62.3 | > 100 | 50.7 | > 100
11 | COc1ccc(CCNCCCC2c3ccccc3-c3ccccc32)cc1OC | 24.5 | 12.4 | 32.1 | 30.5 | 30.6 | 21.2 | 27.5 | 20.3 | –
12 | O=[N+]([O-])c1cccc(C2=NOC3C4CCC(C4)C23)c1 (centres undefined) | > 100 | – | – | > 100 | > 100 | > 100 | > 100 | > 100 | > 100
13 | CC(CCCOC(c1ccccc1)(c1ccccc1)c1ccccc1)OC(=O)Nc1ccccc1 (centres undefined) | 28.3 | 19.8 | 31.9 | 27.1 | – | 29.3 | 26 | 24.5 | –
14 | C[N+](C)=c1nc(N2CCc3ccccc3C2)ss1 | > 100 | > 100 | > 100 | > 100 | > 100 | > 100 | > 100 | > 100 | > 100
15 | COc1ccc2c(c1)CCC(OS(=O)(=O)CC13CCC(CC1=O)C3(C)C)C2=O (centres undefined) | > 100 | 37.8 | – | > 100 | 78.2 | 58.4 | > 100 | 73.3 | –
16 | Cc1ccc(S(=O)(=O)c2c(N)n(CCN(C)C)c3nc4ccccc4nc23)cc1 | > 100 | – | > 100 | > 100 | > 100 | > 100 | > 100 | > 100 | –
